Values of other authors, collected in US20150018320A1, “Hormone Containing Emulsion Comprising Krill Phospholipids” (B. Braun Melsungen AG, priority 2012, published 2015).

Test system: TBI patients
Conditions: two clinical trials

CC(=O)[C@H]1CC[C@H]2[C@@H]3CCC4=CC(=O)CC[C@]4(C)[C@H]3CC[C@]12C [progesterone, pregn-4-ene-3,20-dione]
mortality: decreased mortality | safety and tolerability: safe and well tolerated
